In US6087395A, “Isocarbacyclin derivatives as apoptosis inhibitors” (Japan Science and Technology Corporation, priority 1997, dated 2000):

What was measured:
hippocampal neurons = experiment: Hippocampal neuron apoptosis induced by high-oxygen (50% oxygen) incubation; assay type: cell-based, rat (Wistar strain, fetal); conditions: 48 hours; for survival rate of hippocampal neurons incubated in 50% oxygen (FIG. 1): 5 μM (bFGF 50 nM), neurons in 9% oxygen as control; for dose-dependent effect on hippocampal neural apoptosis / neuroprotection (FIG. 2): range of concentrations tested, n=4; for survival rate of neurons at 3000 nM (FIG. 2): control = neurons in 9% oxygen; for IC50: Rattus norvegicus, Hippocampal neuron, read-out: IC50 (inhibition of hippocampal neural apoptosis)
Procedure: Effect of 15R-TIC and Deoxy-TIC on hippocampal neuron apoptosis induced by a high-oxygen incubation was tested.
Isocarbacyclin was a pure sample supplied from Teijin Co., Ltd. 15S-TIC was prepared in accordance with the method disclosed in Example 3 of JP-A 245,498/96 by using 15S-16-m-tolyl-17,18,19,20-tetra-nor-carbacyclin which is also disclosed in Example 2 of the same Publication JP-A 245,498/96. The 15R-TIC was prepared by the same method as disclosed in Example 3 of the Publication JP-A 245,498/96. bFGF was the commercially available one.
Hippocampal region was cut out from the fetal rat brain which was aseptically isolated from a pregnant rat (Wistar strain) of […] and the hippocampal region was dispersed into neurons by shaking culture for 30 minutes in a PBS (Ca- and Mg-free) containing DL-cysteine (0.2 mg/ml), bovine serum albumin (0.2 mg/ml), glucose (5 mg/ml), DNase I (0.01%) and papain (9 units/ml). After that, each neutron was planted at the density of 5×10^5 cells/cm^2 on a 24-well plate (coated with polyethyleneimine) filled with a DME/F-12 medium (containing 5% equine serum and 5% fetal bovine serums and incubated for two days in a 5% carbon dioxide gas incubator (9% oxygen). After that, the culture medium was substituted with an DME/F-12 medium (containing 5 μg/ml of transferrin, 5 μg/ml of insulin and 5 nM progasterone) wherefrom serum was removed. Then each sample to be tested was added to the medium, and after 30 minutes, transfered into 50% oxygen. After incubating in 50% oxygen for 48 hours, the survival rate of the neurons was measured. The neurons in 9% oxygen were also added to each sample and the survival rate was measured.
Which regard to the survival rate, the neurons were immobilized by 4% paraformaldehyde, stained with anti-MAP2 antibody and colored by DAB, and the cells positive to MAP2 were counted from the 200-fold enlarged picture whereupon the survival rate was calculated.

[1] = rhesus monkey, in vivo
[2] = test system: hippocampal CA1 pyramidal neurons; experiment: Hippocampal CA1 pyramidal neuron apoptosis induced by transient forebrain ischemia, in vivo; parameters: species or system mongolian gerbil; conditions: continuous infusion into left lateral ventricle for 7 days
Procedure: Effect of 15R-TIC on hippocampal CA1 pyramidal neurons apoptosis induced by ischemic damage in mongolian gerbils was tested in vivo.
To examine whether 15R-TIC can prevent nouronal death in vivo, using an osmotic mini-pomp, 15R-TIC solution was continuously infused for 7 days (started 2 days before the transient ischemia and ended at 5 days) into the left lateral ventricle of gerbils that had been subjected to a transient forebrain ischemia for 3 minutes. Survival number of CA1 pyramidal neurons was assessed by counting neurons with cell bodies larger than 10 μm in the Nissl-staining sections.

| SMILES | survival rate of hippocampal neurons incubated in 50% oxygen (FIG. 1) (hippocampal neurons) | dose-dependent effect on hippocampal neural apoptosis / neuroprotection (FIG. 2) (hippocampal neurons) | pass through blood-brain-barrier / transfer into brain ([1]; iv) | further results |
| --- | --- | --- | --- | --- |
| CCCCC[C@H](O)/C=C/[C@@H]1[C@H]2CC(CCCCC(=O)O)=C[C@H]2C[C@H]1O [isocarbacyclin] | greatly reduced by apoptosis induced by a high-oxygen condition as same as under the control condition | did not have any effect on neuroprotection in the range of concentrations tested | – | – |
| Cc1cccc(C[C@H](O)/C=C/[C@@H]2[C@H]3CC(CCCCC(=O)O)=C[C@H]3C[C@H]2O)c1 [15S-TIC, reference compound] | greatly reduced by apoptosis induced by a high-oxygen condition as same as under the control condition | did not have any effect on neuroprotection in the range of concentrations tested | – | – |
| COC(=O)CCCCC1=C[C@H]2C[C@@H](O)[C@H](/C=C/[C@H](O)Cc3cccc([11CH3])c3)[C@H]2C1 [RTA] | – | – | equivalent pass through blood-brain-barrier | conversion in the brain (prodrug behaviour) [1]: could serve as a prodrug for 15R-TIC; retention in the brain ([1]; iv): retained in the brain further than RTC |
| Cc1cccc(C[C@@H](O)/C=C/[C@@H]2[C@H]3CC(CCCCC(=O)O)=C[C@H]3C[C@H]2O)c1 [15R-TIC, 15R-16-(m-tolyl)-17,18,19,20-tetranorisocarbacyclin] | an increase in the survival rate of neurons was observed to the same or even better extent as compared with the case of bFGF | dose-dependent inhibitory effect on neural apoptosis | – | survival rate of neurons at 3000 nM (FIG. 2) (hippocampal neurons): equivalent to the control; IC50 (hippocampal neurons): ~300 nM; loss of CA1 pyramidal neurons induced by forebrain ischemia [2]: blocked the loss of CA1 pyramidal neurons induced by forebrain ischemia; number of CA1 pyramidal neurons ([2]; in a 20 μm thick section, n=4, 3 minutes transient forebrain ischemia, ischemia-free control 1061±220, vehicle 142±28): 984±299 |
| COC(=O)CCCCC1=C[C@H]2C[C@@H](O)[C@H](/C=C/[C@H](O)Cc3cccc(C)c3)[C@H]2C1 [15R-TIC methyl ester] | – | – | efficiently transfererd into the brain | conversion in the brain (prodrug behaviour) [1]: is converted to 15R-TIC in the brain |
| Cc1cccc(CC/C=C/[C@@H]2[C@H]3CC(CCCCC(=O)O)=C[C@H]3C[C@H]2O)c1 [Deoxy-TIC, 15-Deoxy-16-(m-tolyl)-17,18,19,20-tetranorisocarbacyclin] | an increase in the survival rate of neurons was observed to the same or even better extent as compared with the case of bFGF | dose-dependent inhibitory effect on neural apoptosis | – | survival rate of neurons at 3000 nM (FIG. 2) (hippocampal neurons): equivalent to the control; IC50 (hippocampal neurons): ~30 nM |
| Cc1cccc(C[C@@H](O)/C=C/[C@@H]2[C@H]3CC(CCCCC(=O)O[11CH3])=C[C@H]3C[C@H]2O)c1 [RTC] | – | – | equivalent pass through blood-brain-barrier | – |
